Where “and” joins values, the source holds several entries; their conditions need not be identical. Equal values may be shown once. Read-outs that look alike come from different tables or passages of the source.
Key:
MDCK cells [1] = test: cells; format: cell-based, canine
MDCK cells [2] = test: cells; format: cell-based, canine; remark: listed apart in the source
soluble gp120 (sgp120) = soluble gp120 (sgp120) (Human immunodeficiency virus type 1 group M subtype B, UniProt P03375)
gp120 [3] = format: binding, HIV-1; conditions: 100 ng protein standard, Griffithsin 100 ng/well; FIG. 5a
gp120 [4] = target: gp120 (Human immunodeficiency virus type 1 group M subtype B, UniProt P03378); format: binding, HIV-1; conditions: glycosylated and nonglycosylated HIV-1SF2 gp120, serial dilutions; FIG. 5b
Sequence of gp120 (Human immunodeficiency virus type 1 group M subtype B, UniProt P03378) (P03378 32-509 limits assumed): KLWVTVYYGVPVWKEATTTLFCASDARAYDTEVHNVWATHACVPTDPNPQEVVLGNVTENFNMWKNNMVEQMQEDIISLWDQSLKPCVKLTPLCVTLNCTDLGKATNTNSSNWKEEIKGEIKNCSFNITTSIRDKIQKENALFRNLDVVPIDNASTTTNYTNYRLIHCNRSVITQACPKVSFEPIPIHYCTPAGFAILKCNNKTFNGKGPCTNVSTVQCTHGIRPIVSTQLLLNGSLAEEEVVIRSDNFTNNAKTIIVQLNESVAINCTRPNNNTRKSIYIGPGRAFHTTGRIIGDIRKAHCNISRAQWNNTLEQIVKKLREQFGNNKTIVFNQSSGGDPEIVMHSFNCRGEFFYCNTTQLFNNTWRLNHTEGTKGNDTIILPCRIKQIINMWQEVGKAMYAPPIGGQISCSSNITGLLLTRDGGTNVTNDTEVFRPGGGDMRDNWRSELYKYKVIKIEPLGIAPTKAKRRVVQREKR

HIV-1 ROJO = format: cell-based; conditions: HIV primary isolate ROJO; PBMC; T-tropic; supernatant RT activity; mean value
[5] = system: fusion of CD4 β-gal cells with HL 2/3 cells; format: cell-based
Vero76 cells [6] = format: cell-based
Vero76 cells [7] = format: cell-based; remark: listed apart in the source
gp160 = gp160 (Human immunodeficiency virus type 1 group M subtype B, UniProt P03375); conditions: 100 ng protein standard, Griffithsin 100 ng/well; FIG. 5a
Texas/36/91 (H1N1) = format: cell-based, influenza A
Panama/2007/99 (H3N2) = format: cell-based, influenza A
Washington/05/96 (H3N2) = format: cell-based, influenza A
SARS virus [8] = format: cell-based
HCV RNA replicon = format: cell-based, Hepatitis C virus; conditions: for Inhibition of Viral Activity (% reduction Luc): 20 µM
SARS virus [9] = system: SARS virus
sCD4 = sCD4 (Homo sapiens, UniProt P01730); format: binding
[10] = system: T-lymphocytes (CEM-SS), PBMCs, macrophages; conditions: concentrations 1000-fold higher than the EC50 values
Huh7 ET cell line = conditions: for Cytotoxicity (% reduction in rRNA)*: single high-test concentration, compared to control cell
[11] = system: bovine IgG, α-acid glycoprotein, and aprotinin; format: binding
Beijing/262/95 (H1N1) = format: cell-based, influenza A
Shandong/09/93 (H3N2) = format: cell-based, influenza A
Sydney/5/97 (H3N2) = format: cell-based, influenza A
[12] = target: sgp120 binding of CD4 on CEM-SS cells (Human immunodeficiency virus type 1 group M subtype B, UniProt P03375); conditions: pretreatment of sgp120 with Griffithsin, Leu3a epitope availability
HIV = format: cell-based
Description: Potent cytoprotective and anti-replicative activities of both natural and His-tagged recombinant Griffithsin were observed using the HIV-1RF strain of HIB in CEM-SS cells. […] In contrast, infectivity of cell-free virus was abolished after pretreatment and removal of Griffithsin.

SARS virus [13] = system: SARS virus; remark: listed apart in the source
HIV-1 ADA = format: cell-based; conditions: HIV primary isolate ADA; macrophage; M-tropic; p24 ELISA; mean value
Zaire ebola virus = format: cell-based
Los Angeles/2/87 (H3N2) = format: cell-based, influenza A
HIV-1 RF = format: cell-based
CEM-SS cells = system: CEM-SS cells; design: direct cytotoxicity to the host cells: dose or concentration left out as unconfirmed
HIV-1IIIB = format: cell-based; conditions: concentration-dependent manner
HIV-1 Ba-L = format: cell-based; conditions: HIV primary isolate Ba-L; macrophage; M-tropic; p24 ELISA; mean value
[14] = system: cell-cell fusion of uninfected and chronically infected CEM-SS; format: cell-based
[15] = Canis lupus familiaris, MDCK, 72 h

Compound: NC(=O)c1ncn([C@@H]2O[C@H](CO)[C@@H](O)[C@H]2O)n1 [Ribavirin, reference compound]
- IC50 (MDCK cells [1]; [15]): > 100 µg/mL
- IC50 (MDCK cells [2]; [15]): > 100 µg/mL

Compound: Cyanovirin-N [reference compound]
- recognition of sgp120 by Griffithsin (soluble gp120 (sgp120); effect of cyanovirin-N): interfered strongly

Compound: Griffithsin
- interaction with gp120 (ELISA, absorbance at 405 nm) (gp120 [3]): direct interaction
- binding of Griffithsin to sgp120 (gp120 [4]): both concentration-dependent and glycosylation-dependent
- EC50 (HIV-1 ROJO): 0.63 nM
- fusion of CD4 β-gal cells with HL 2/3 cells [5]: inhibited
- IC50 (Vero76 cells [6]): >100 µg/mL
- IC50 (Vero76 cells [7]): >100 µg/mL
- IC50 in each assay (Vero76 cells [7]): greater than 100 μg/ml
- interaction with gp160 (ELISA) (gp160): direct interaction
- toxicity to the MDCK cell line (MDCK cell line): not found to be toxic
- EC50 (Texas/36/91 (H1N1)): 0.06 µg/mL
- EC50 (Panama/2007/99 (H3N2)): 0.006 µg/mL
- EC50 (Washington/05/96 (H3N2)): 0.016 µg/mL
- EC50 (SARS virus [8]): 4 µg/mL and 2 µg/mL
- average EC50 (SARS virus [8]): 3 µg/mL
- IC50 (MDCK cells [1]): >10 µg/mL
- EC50 (anti-HCV) (HCV RNA replicon): 7.17 µg/mL
- Inhibition of Viral Activity (% reduction Luc) (HCV RNA replicon): 60%
- EC50 (SARS virus [9]): 14 µg/mL
- interaction with cCD4 (ELISA) (sCD4): little or no detectable interaction
- toxicity against any of the cell lines [10]: did not show any toxicity
- toxicity level (cytotoxicity) (Huh7 ET cell line; highest test concentration of 10 μg/ml, FIG. 7): never reached a toxicity level
- overall reduction in cell growth (Huh7 ET cell line; single high-test concentration of 20 μM, 72 hr): 25%
- Cytotoxicity (% reduction in rRNA)* (Huh7 ET cell line; 72 hr): 74.5%
- interaction with other reference proteins (ELISA) [11]: little or no detectable interaction
- EC50 (Beijing/262/95 (H1N1)): 0.07 µg/mL
- EC50 (Shandong/09/93 (H3N2)): 0.018 µg/mL
- EC50 (Sydney/5/97 (H3N2)): 0.016 µg/mL
- CD4-dependent sgp120 binding [12]: completely blocked
- infectivity of cell-free virus (HIV; after pretreatment of virus and removal of Griffithsin): abolished
- susceptibility of pretreated uninfected CEM-SS cells to HIV infection (HIV; after the removal of Griffithsin): retained normal susceptibility
- EC90 (SARS virus [13]): 5 µg/mL
- EC50 (HIV-1 ADA): 0.5 nM
- anti-ebola virus activity (Zaire ebola virus): low μg/ml range
- EC50 (Los Angeles/2/87 (H3N2)): 0.037 µg/mL
- anti-HIV activity, EC50 (HIV-1 RF; CEM-SS cells infected with HIV-1, FIG. 4): low nanomolar range
- inhibition of virus-induced cell killing (HIV-1 RF; HIV-1RF in CEM-SS cells): concentration-dependent inhibition
- supernatant reverse transcriptase and viral core antigen, p24 (HIV-1 RF; HIV-1RF in CEM-SS cells): concomitant decreases
- EC50 (HIV-1 RF; HIV-1 laboratory strain RF, CEM-SS, T-tropic, XTT-tetrazolium, mean value): 0.043 nM
- subsequent binding of cyanovirin-N to sgp120 (soluble gp120 (sgp120); Griffithsin pretreatment of sgp120): did not block
- recognition of sgp120 by mAbs that recognize the C1 region (or V3 loop), and the mAb 17b (soluble gp120 (sgp120); effect of Griffithsin): little or no effect
- recognition of sgp120 by the mAbs 48d and 2G12 (soluble gp120 (sgp120); effect of Griffithsin): interfered strongly
- sCD4 and mAb IgG 1b12 binding to sgp120 (soluble gp120 (sgp120); effect of Griffithsin): moderately interfered
- subsequent binding of Griffithsin to sgp120 (soluble gp120 (sgp120); sgp120 pretreated with sCD4 and the mAbs IgG1b12, 48d, and 2G12): did not block
- direct cytotoxicity to the host cells (CEM-SS cells; highest tested concentrations): no significant evidence of direct cytotoxicity
- direct cytotoxicity to the uninfected control cells (CEM-SS cells; highest tested concentrations of Griffithsin (78.3 to 783 nM)): little or no evidence of direct cytotoxicity
- IC50 (MDCK cells [2]): >10 µg/mL
- cell-free HIV-1IIIB fusion and infection of β-gal cells (HIV-1IIIB): inhibited
- EC50 (HIV-1 Ba-L): 0.098 nM
- inhibition of cell-cell fusion [14]: concentration-dependent inhibition

Compound: IFN-α [reference compound]
- Inhibition of Viral Activity (% reduction Luc) (HCV RNA replicon): 98.6%
- Cytotoxicity (% reduction in rRNA)* (Huh7 ET cell line; 72 hr): 98.4%
